# Measured values as given in ChEMBL document CHEMBL6092192 (J Med Chem, 2024).
# Activity calls are given as the source filed them. No cut-off for these calls is given here.
# How the values were obtained:
# [1] = target: T1, ATP-dependent translocase ABCB1 (Homo sapiens, UniProt P08183); experiment: Induction of thermal stabilization of ABCB1 in human SW620/AD300 cells at 200 uM measured after 30 mins by thermal shift assay; assay type: cell-based; settings: sw620/ad300, 0.5 h
# [2] = target: Cytochrome P450 3A4 (Homo sapiens, UniProt P08684); experiment: Activation of recombinant CYP3A4 in human liver microsomes at 4 uM measured after 30 mins in presence of NADPH generating system by fluorescence based analysis; assay type: ADME, Microsome; settings: 0.5 h
# [3] = test system: SW620/AD300; experiment: Reversal of paclitaxel resistance in human SW620/AD300 cells assessed as reversal fold by measuring ratio of paclitaxel IC50 to paclitaxel IC50 in presence of test compound at 4 uM incubated for 72 hrs by MTT assay; assay type: functional
# [4] = Reversal of paclitaxel resistance in HEK293 cells transfected with pcDNA3.1 assessed as reversal fold by measuring ratio of paclitaxel IC50 to paclitaxel IC50 in presence of test compound at 4 uM incubated for 72 hrs by MTT assay; assay type: functional, Homo sapiens
# [5] = target: T1, ATP-dependent translocase ABCB1; experiment: Inhibition of ABCB1 in human SW620/AD300 cells assessed as increase in [3H]-PTX accumulation at 2 to 4 uM incubated for 4 hrs by liquid scintillation analysis; assay type: cell-based; settings: sw620/ad300, 4 h, dose 2-4 µM
# [6] = Toxicity in BALB/c nude mouse xenografted with […] CT26/TAXOL cells assessed as mortality at 100 mg/kg/day, IG measured upto 14 days in presence of paclitaxel; assay type: organism-based; settings: in vivo, po, 336 h, time < 14 day
# [7] = test system: SW-620; experiment: Reversal of paclitaxel resistance in human SW620 cells assessed as reversal fold by measuring ratio of paclitaxel IC50 to paclitaxel IC50 in presence of test compound at 4 uM incubated for 72 hrs by MTT assay; assay type: functional
# [8] = Toxicity in BALB/c nude mouse assessed as change in body weight at 100 mg/kg/day, IG measured after 21 days in presence of paclitaxel; assay type: organism-based; settings: in vivo, po, 504 h, time 21 day
# [9] = test system: KB-C2; experiment: Cytotoxicity against human KB-C2 cells assessed as survival rate at 5 uM measured after 72 hrs by MTT assay relative to control; assay type: functional; settings: read-out: Survival
# [10] = target: hERG (KCNH2) (Homo sapiens, UniProt Q12809); experiment: Inhibition of human ERG expressed in CHO cells at 40 uM by QPatch assay relative to control; assay type: toxicity, cell-based; settings: CHO cells expressing human ERG
# [11] = test system: CT26/TAXOL; experiment: Antitumor T-cell immune response in […] cells xenografted in BALB/c nude mouse model assessed as reduction in tumor volume at 100 mg/kg/day, IG in presence of anti-PD-1/paclitaxel measured after 14 days; assay type: functional, organism-based; settings: time 14.0 day
# [12] = Tmax in 12 hrs fasted Sprague-Dawley rat at 10 mg/kg, po measured upto 720 mins by HPLC-MS/MS analysis; assay type: ADME, organism-based; settings: in vivo
# [13] = test system: HEK293; experiment: Cytotoxicity against HEK293 cells harbouring ABCB1 assessed as survival rate at 5 uM measured after 72 hrs by MTT assay relative to control; assay type: functional; settings: Homo sapiens, read-out: Survival
# [14] = test system: SW620/AD300; experiment: Reversal of paclitaxel resistance in human SW620/AD300 cells assessed as reversal fold by measuring ratio of paclitaxel IC50 to paclitaxel IC50 in presence of test compound at 2 uM incubated for 72 hrs by MTT assay; assay type: functional
# [15] = test system: SW620/AD300; experiment: Antitumor activity against human SW620/AD300 cells xenografted in male BALB/c nude mouse model assessed as nuclear pyknosis at 100 mg/kg/day, IG in presence of paclitaxel by H and E staining based analysis; assay type: functional, organism-based
# [16] = test system: HEK293; experiment: Cytotoxicity against HEK293 cells harbouring ABCB1 assessed as survival rate at 2 uM measured after 72 hrs by MTT assay relative to control; assay type: functional; settings: Homo sapiens, read-out: Survival
# [17] = test system: SW620/AD300; experiment: Antitumor activity against human SW620/AD300 cells xenografted in male BALB/c nude mouse model assessed as increase in apoptosis at 100 mg/kg/day, IG in presence of paclitaxel by tunel staining based immunofluorescence analysis; assay type: functional, organism-based
# [18] = Toxicity in BALB/c nude mouse xenografted with […] CT26/TAXOL cells assessed as effect on heart at 100 mg/kg/day, IG in presence of paclitaxel/anti-PD-1 measured after 14 days by H and E staining based analysis; assay type: organism-based; settings: in vivo, po, 336 h, time 14 day
# [19] = target: Multidrug resistance-associated protein 1 (Homo sapiens, UniProt P33527); experiment: Induction of thermal stabilization of ABCC1 in human SW620/AD300 cells at 200 uM measured after 30 mins by thermal shift assay; assay type: cell-based; settings: sw620/ad300, 0.5 h
# [20] = test system: SW620/AD300; experiment: Reversal of paclitaxel resistance in human SW620/AD300 cells assessed as reversal fold by measuring ratio of paclitaxel IC50 to paclitaxel IC50 in presence of test compound incubated for 72 hrs by MTT assay; assay type: functional
# [21] = AUC (0 to infinity) in 12 hrs fasted Sprague-Dawley rat at 1 mg/kg, iv measured upto 720 mins by HPLC-MS/MS analysis; assay type: ADME, organism-based; settings: in vivo
# [22] = test system: CT26/TAXOL; experiment: Antitumor T-cell immune response in […] cells xenografted in BALB/c nude mouse model at 100 mg/kg/day, IG in presence of anti-PD-1/paclitaxel measured after 14 days; assay type: functional, organism-based; settings: time 14.0 day
# [23] = test system: KB-C2; experiment: Reversal of paclitaxel resistance in human KB-C2 cells assessed as reversal fold by measuring ratio of paclitaxel IC50 to paclitaxel IC50 in presence of test compound at 4 uM incubated for 72 hrs by MTT assay; assay type: functional
# [24] = target: T1, ATP-dependent translocase ABCB1; experiment: Inhibition of ABCB1 in human SW620/AD300 cells assessed as decrease in [3H]-PTX efflux at 4 uM measured after 120 mins (Rvb <95%); assay type: cell-based; settings: 2 h
# [25] = test system: CT26/TAXOL; experiment: Antitumor T-cell immune response in […] cells xenografted in BALB/c nude mouse model assessed as reduction in tumor weight at 100 mg/kg/day, IG in presence of anti-PD-1/paclitaxel measured after 14 days; assay type: functional, organism-based; settings: time 14.0 day
# [26] = test system: SW620/AD300; experiment: Antitumor activity against human SW620/AD300 cells xenografted in male BALB/c nude mouse model assessed as reduction in tumor weight at 100 mg/kg/day, IG measured after 21 days in presence of paclitaxel; assay type: functional, organism-based; settings: time 21.0 day
# [27] = target: T1, ATP-dependent translocase ABCB1; experiment: Activation of ABCB1 ATPase activity (unknown origin) infected in insect cells by measuring fold change at upto 40 uM incubated for 20 mins in presence of Mg-ATP by spectrophotometric analysis; settings: Insect cell, read-out: FC
# [28] = Cmax in 12 hrs fasted Sprague-Dawley rat at 1 mg/kg, iv measured upto 720 mins by HPLC-MS/MS analysis; assay type: ADME, organism-based; settings: in vivo
# [29] = Toxicity in BALB/c nude mouse xenografted with […] CT26/TAXOL cells assessed as mortality at 100 mg/kg/day, IG measured upto 14 days; assay type: organism-based; settings: in vivo, po, 336 h, time < 14 day
# [30] = Toxicity in Sprague-Dawley rat assessed as change in body weight at 250 to 1000 mg/kg, po measured for 14 days administered as single dose; assay type: organism-based; settings: in vivo, 336 h, dose 250-1000 mg/kg, time 14 day
# T1 sequence (P08183 whole entry): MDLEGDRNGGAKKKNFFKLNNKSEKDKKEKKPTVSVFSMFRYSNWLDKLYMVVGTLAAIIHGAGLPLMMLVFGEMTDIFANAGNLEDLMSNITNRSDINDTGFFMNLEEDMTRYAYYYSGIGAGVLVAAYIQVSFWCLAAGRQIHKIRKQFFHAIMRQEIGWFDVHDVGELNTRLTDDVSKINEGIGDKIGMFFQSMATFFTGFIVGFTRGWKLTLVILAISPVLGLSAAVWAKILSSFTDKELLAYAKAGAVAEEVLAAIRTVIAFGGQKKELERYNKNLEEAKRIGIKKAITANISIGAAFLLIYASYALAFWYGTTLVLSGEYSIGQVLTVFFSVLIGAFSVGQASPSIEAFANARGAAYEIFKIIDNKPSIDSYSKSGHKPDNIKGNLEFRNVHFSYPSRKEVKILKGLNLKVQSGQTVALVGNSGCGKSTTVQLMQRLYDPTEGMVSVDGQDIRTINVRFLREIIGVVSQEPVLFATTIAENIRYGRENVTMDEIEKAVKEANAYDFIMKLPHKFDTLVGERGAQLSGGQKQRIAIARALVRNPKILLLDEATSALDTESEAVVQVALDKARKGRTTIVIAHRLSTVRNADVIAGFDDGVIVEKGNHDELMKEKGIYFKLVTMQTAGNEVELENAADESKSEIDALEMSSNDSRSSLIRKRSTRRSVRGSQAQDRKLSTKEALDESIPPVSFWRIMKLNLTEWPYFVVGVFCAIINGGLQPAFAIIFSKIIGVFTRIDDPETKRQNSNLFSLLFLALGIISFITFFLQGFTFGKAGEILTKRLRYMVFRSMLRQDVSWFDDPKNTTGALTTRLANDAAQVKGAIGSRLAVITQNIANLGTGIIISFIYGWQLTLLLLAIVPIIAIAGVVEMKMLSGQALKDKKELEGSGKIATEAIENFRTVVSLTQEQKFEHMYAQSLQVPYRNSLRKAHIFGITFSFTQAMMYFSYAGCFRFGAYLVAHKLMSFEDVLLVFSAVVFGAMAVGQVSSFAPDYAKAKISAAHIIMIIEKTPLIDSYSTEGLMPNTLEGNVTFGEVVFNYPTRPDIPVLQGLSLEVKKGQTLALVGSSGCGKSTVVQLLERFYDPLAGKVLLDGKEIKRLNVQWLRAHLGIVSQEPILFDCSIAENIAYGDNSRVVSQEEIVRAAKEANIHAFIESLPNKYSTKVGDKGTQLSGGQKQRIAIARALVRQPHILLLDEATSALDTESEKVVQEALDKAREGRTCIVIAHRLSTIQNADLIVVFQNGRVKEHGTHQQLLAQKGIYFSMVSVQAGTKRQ
# hERG (KCNH2), sequence (Q12809 whole entry): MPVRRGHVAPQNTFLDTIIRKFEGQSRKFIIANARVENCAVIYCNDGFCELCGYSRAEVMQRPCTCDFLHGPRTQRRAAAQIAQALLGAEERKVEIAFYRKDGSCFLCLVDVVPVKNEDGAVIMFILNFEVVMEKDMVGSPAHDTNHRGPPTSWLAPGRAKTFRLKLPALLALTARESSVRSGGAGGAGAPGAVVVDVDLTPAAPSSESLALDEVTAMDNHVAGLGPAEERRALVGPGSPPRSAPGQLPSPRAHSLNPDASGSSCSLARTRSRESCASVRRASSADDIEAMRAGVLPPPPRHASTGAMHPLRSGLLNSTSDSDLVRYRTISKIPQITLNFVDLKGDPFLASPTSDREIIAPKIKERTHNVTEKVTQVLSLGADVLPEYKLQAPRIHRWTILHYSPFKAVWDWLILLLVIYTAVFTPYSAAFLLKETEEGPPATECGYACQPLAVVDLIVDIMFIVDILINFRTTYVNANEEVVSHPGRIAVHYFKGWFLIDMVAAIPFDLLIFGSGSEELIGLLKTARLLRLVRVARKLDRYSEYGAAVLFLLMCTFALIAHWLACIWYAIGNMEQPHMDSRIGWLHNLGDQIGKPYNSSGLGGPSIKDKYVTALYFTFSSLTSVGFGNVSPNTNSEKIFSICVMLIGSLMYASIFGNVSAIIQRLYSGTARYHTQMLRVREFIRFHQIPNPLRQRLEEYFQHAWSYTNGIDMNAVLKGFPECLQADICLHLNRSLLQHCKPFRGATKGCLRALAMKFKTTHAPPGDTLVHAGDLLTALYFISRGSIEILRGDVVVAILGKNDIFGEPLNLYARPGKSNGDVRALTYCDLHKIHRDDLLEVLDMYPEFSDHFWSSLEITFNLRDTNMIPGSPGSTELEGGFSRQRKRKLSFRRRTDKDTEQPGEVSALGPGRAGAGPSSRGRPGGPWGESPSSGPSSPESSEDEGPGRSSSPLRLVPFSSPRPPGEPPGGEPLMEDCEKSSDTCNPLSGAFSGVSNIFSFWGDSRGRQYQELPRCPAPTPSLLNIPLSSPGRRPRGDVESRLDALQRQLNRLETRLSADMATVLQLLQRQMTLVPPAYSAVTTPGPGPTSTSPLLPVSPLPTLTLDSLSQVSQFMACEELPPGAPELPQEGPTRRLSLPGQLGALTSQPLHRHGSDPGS
# Multidrug resistance-associated protein 1, sequence (P33527 whole entry): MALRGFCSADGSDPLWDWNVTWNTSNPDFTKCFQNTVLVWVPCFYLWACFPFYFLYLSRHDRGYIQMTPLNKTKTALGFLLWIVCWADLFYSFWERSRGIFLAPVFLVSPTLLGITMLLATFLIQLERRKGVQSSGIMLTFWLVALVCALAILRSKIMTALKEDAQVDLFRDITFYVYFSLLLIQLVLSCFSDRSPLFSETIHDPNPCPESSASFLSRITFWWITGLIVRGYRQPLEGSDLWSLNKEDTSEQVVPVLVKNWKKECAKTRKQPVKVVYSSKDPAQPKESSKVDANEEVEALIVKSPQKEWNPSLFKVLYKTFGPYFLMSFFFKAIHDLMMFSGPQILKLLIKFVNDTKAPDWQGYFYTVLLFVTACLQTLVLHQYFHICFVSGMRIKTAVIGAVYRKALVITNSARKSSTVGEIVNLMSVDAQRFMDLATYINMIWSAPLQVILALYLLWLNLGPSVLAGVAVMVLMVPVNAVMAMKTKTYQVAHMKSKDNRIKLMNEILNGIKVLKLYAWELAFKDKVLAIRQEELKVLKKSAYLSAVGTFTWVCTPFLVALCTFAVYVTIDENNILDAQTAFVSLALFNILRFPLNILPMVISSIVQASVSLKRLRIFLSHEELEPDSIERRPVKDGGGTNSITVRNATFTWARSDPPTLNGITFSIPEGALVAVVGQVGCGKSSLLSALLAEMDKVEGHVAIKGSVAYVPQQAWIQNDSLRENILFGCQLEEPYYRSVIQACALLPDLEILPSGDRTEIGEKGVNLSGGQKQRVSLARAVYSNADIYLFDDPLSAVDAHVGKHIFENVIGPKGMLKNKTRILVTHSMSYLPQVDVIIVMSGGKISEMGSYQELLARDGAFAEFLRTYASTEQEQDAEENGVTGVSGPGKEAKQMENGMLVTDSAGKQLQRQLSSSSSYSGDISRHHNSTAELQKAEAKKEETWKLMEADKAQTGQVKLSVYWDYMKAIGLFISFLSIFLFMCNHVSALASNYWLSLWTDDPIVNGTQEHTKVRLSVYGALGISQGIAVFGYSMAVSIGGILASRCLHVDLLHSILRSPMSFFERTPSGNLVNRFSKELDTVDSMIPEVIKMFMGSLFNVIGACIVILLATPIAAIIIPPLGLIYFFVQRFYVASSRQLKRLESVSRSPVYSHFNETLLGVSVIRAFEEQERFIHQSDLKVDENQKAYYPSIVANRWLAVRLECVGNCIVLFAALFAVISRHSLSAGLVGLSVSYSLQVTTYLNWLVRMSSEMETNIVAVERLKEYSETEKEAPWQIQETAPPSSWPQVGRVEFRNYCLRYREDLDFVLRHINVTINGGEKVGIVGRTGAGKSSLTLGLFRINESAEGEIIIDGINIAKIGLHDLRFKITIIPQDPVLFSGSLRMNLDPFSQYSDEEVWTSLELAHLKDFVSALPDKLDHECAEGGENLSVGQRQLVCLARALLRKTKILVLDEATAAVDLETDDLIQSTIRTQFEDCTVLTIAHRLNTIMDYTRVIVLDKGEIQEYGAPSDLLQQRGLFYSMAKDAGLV
# Cytochrome P450 3A4, sequence (P08684 whole entry): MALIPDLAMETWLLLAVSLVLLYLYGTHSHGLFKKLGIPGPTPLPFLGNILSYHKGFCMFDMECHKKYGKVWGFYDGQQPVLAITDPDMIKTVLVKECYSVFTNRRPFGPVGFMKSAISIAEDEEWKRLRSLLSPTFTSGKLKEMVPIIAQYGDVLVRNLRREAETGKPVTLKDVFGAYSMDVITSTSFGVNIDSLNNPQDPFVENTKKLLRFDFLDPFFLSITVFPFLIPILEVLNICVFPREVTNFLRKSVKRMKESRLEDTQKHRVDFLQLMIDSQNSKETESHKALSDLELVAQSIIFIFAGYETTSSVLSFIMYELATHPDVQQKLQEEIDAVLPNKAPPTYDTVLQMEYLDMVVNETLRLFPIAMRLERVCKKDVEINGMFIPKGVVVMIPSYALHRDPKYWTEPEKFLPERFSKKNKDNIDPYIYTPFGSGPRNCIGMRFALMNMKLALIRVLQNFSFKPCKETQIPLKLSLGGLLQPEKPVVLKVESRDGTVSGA
smiles,measurement,setting,value
O=c1c2c([nH]c3nc(SCc4nc5ccccc5s4)nn13)CCC2,Activity,[1],Active
same,Activity,[2],Active
same,Ratio IC50,[3],730.33
same,Ratio IC50,[4],1.16
same,inhibition (INH),[5],Active
same,Activity,[6],Non-toxic
same,Ratio IC50,[7],1.06
same,Activity,[8],Non-toxic
same,viability at 5 µM,[9],94.4%
same,inhibition at 40 µM,[10],32%
same,Activity,[11],Active
same,Tmax,[12],6 h
same,viability at 5 µM,[13],91.2%
same,Ratio IC50,[14],168.91
same,Activity,[15],Active
same,viability at 2 µM,[16],98.2%
same,Activity,[17],Active
same,Activity,[18],Non-toxic
same,Activity,[19],Not_active
same,Ratio IC50,[20],864
same,AUC(0-inf),[21],915 ng·h/mL
same,Activity,[22],Active
same,Ratio IC50,[23],443.74
same,inhibition at 4 µM,[24],71%
same,Activity,[25],Active
same,Activity,[26],Active
same,fold induction at up to 40 µM,[27],2.5
same,Cmax,[28],380 ng/mL
same,Activity,[29],Non-toxic
same,Activity,[30],Non-toxic
